Test results as given in ChEMBL document CHEMBL5463729, “Data for DCP probe BAY 1753011” (2023).

Assays:
Conditions in all cases: Compound concentration 10.0 uM
[1] = target: Serine/threonine-protein kinase MARK1 (Homo sapiens) (UniProt Q9P0L2); test: Inhibition of MARK1(h) at 10.0 µM in the Eurofins Kinase panel
[2] = target: Tribbles homolog 2 (Homo sapiens) (UniProt Q92519); test: Inhibition of TRB2(h) at 10.0 µM in the Eurofins Kinase panel
[3] = target: Activated CDC42 kinase 1 (Homo sapiens) (UniProt Q07912); test: Inhibition of ACK1(h) at 10.0 µM in the Eurofins Kinase panel
[4] = target: Alpha-1B adrenergic receptor (Homo sapiens) (UniProt P35368)
[5] = target: Eukaryotic translation initiation factor 2-alpha kinase 1 (Homo sapiens) (UniProt Q9BQI3); test: Inhibition of HRI(h) at 10.0 µM in the Eurofins Kinase panel
[6] = target: Cyclin-dependent kinase-like 3 (Homo sapiens) (UniProt Q8IVW4); test: Inhibition of CDKL3(h) at 10.0 µM in the Eurofins Kinase panel
[7] = target: Histamine H4 receptor (Homo sapiens) (UniProt Q9H3N8)
[8] = target: Tau-tubulin kinase 1 (Homo sapiens) (UniProt Q5TCY1); test: Inhibition of TTBK1(h) at 10.0 µM in the Eurofins Kinase panel
[9] = target: cGMP-dependent protein kinase 2 (Homo sapiens) (UniProt Q13237); test: Inhibition of PRKG2(h) at 10.0 µM in the Eurofins Kinase panel
[10] = target: PI3K p110 beta/p85 alpha (Homo sapiens) (UniProt P27986+P42338); test: Inhibition of PI3 Kinase (p110b/p85a)(h) at 10.0 µM in the Eurofins Kinase panel; format: protein-complex assay
[11] = target: D(2) dopamine receptor (Homo sapiens) (UniProt P14416)
[12] = target: RAF proto-oncogene serine/threonine-protein kinase (Homo sapiens) (UniProt P04049); test: Inhibition of c-RAF(h) at 10.0 µM in the Eurofins Kinase panel
[13] = target: Receptor-interacting serine/threonine-protein kinase 2 (Homo sapiens) (UniProt O43353); test: Inhibition of RIPK2(h) at 10.0 µM in the Eurofins Kinase panel
[14] = target: MAP kinase-activated protein kinase 3 (Homo sapiens) (UniProt Q16644); test: Inhibition of MAPKAP-K3(h) at 10.0 µM in the Eurofins Kinase panel
[15] = target: T1, Muscarinic acetylcholine receptor M1 (Homo sapiens) (UniProt P11229)
T1 sequence (whole entry): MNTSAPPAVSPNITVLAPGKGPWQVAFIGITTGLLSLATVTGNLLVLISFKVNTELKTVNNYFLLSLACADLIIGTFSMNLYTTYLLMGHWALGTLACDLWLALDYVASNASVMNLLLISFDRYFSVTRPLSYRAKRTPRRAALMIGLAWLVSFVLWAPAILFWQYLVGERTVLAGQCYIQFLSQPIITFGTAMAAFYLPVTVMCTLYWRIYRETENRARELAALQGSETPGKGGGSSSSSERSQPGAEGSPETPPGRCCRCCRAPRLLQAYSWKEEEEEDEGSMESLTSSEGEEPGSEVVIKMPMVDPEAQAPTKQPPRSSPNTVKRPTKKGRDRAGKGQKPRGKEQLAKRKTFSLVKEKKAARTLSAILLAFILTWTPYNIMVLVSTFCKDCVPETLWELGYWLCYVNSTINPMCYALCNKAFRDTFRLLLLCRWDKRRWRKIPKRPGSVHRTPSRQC

[16] = target: Dual specificity protein kinase CLK1 (Homo sapiens) (UniProt P49759); test: Inhibition of CLK1(h) at 10.0 µM in the Eurofins Kinase panel
[17] = target: TGF-beta receptor type-2 (Homo sapiens) (UniProt P37173); test: Inhibition of TGFBR2(h) at 10.0 µM in the Eurofins Kinase panel
[18] = target: Tyrosine-protein kinase Lck (Homo sapiens) (UniProt P06239); test: Inhibition of Lck(h) activated at 10.0 µM in the Eurofins Kinase panel
[19] = target: Glucocorticoid receptor (Homo sapiens) (UniProt P04150)
[20] = target: Calcium/calmodulin-dependent protein kinase type II subunit gamma (Homo sapiens) (UniProt Q13555); test: Inhibition of CaMKIIgamma(h) at 10.0 µM in the Eurofins Kinase panel
[21] = target: CDK18/Cyclin Y (Homo sapiens) (UniProt Q07002+Q8ND76); test: Inhibition of CDK18/cyclinY(h) at 10.0 µM in the Eurofins Kinase panel; format: protein-complex assay
[22] = target: Serine/threonine-protein kinase NLK (Homo sapiens) (UniProt Q9UBE8); test: Inhibition of NLK (h) at 10.0 µM in the Eurofins Kinase panel
[23] = target: Mitogen-activated protein kinase 10 (Homo sapiens) (UniProt P53779); test: Inhibition of JNK3(h) at 10.0 µM in the Eurofins Kinase panel
[24] = target: Tyrosine-protein kinase ABL2 (Homo sapiens) (UniProt P42684); test: Inhibition of Arg(h) at 10.0 µM in the Eurofins Kinase panel
[25] = target: Serine/threonine-protein kinase DCLK3 (Homo sapiens) (UniProt Q9C098); test: Inhibition of DCAMKL3(h) at 10.0 µM in the Eurofins Kinase panel
[26] = target: Myosin light chain kinase (Homo sapiens) (UniProt Q32MK0); test: Inhibition of MLCK(h) at 10.0 µM in the Eurofins Kinase panel
[27] = target: Dual specificity tyrosine-phosphorylation-regulated kinase 1B (Homo sapiens) (UniProt Q9Y463); test: Inhibition of DYRK1B(h) at 10.0 µM in the Eurofins Kinase panel
[28] = target: T2, 5-hydroxytryptamine receptor 1A (Homo sapiens) (UniProt P08908)
T2 sequence (whole entry): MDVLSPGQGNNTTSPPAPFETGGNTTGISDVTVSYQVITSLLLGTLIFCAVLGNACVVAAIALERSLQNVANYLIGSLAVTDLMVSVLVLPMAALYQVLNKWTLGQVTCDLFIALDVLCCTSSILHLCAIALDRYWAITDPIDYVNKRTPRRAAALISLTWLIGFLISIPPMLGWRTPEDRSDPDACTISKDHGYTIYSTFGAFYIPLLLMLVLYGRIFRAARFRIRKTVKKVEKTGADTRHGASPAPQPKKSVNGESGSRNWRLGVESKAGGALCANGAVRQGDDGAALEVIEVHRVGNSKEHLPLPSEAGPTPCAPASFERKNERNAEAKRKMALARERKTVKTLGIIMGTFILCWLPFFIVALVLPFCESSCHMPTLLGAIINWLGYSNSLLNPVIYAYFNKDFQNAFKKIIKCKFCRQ

[29] = target: 5-hydroxytryptamine receptor 5A (Homo sapiens) (UniProt P47898)
5-hydroxytryptamine receptor 5A (Homo sapiens), sequence (P47898 whole entry): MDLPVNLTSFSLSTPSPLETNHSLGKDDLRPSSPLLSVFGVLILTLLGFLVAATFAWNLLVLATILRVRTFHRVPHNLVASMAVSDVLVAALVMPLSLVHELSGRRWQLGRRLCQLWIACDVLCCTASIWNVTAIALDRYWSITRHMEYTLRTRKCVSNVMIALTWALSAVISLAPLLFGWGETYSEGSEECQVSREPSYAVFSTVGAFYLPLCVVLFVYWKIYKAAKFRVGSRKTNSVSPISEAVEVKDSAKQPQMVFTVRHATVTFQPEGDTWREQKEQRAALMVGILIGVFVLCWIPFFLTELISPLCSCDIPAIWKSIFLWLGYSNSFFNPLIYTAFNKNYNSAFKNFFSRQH

Alpha-1B adrenergic receptor (Homo sapiens), sequence (P35368 whole entry): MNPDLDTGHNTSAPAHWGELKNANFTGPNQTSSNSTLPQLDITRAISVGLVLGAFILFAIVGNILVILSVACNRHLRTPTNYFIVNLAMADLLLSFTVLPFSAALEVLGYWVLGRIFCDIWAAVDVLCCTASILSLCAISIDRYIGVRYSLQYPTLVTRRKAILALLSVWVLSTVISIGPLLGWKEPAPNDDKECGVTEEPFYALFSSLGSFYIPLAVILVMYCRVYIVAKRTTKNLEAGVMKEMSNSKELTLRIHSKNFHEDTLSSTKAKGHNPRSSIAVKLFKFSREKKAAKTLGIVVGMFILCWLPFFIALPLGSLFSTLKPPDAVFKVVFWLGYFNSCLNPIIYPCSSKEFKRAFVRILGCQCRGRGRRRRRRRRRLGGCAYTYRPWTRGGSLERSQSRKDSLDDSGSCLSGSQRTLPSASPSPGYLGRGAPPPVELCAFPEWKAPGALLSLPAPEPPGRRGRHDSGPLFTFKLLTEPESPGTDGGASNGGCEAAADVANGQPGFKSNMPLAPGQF
Histamine H4 receptor (Homo sapiens), sequence (Q9H3N8 whole entry): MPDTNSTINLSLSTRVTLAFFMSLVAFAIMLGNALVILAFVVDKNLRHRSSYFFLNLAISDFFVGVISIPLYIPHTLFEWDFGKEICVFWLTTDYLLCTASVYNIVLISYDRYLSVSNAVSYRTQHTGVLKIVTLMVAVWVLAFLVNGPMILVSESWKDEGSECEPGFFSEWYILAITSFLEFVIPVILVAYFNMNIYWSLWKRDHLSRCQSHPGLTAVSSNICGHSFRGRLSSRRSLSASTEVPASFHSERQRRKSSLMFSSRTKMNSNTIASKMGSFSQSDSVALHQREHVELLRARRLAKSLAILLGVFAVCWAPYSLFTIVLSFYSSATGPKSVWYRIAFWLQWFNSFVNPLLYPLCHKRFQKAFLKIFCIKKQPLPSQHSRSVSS
MAP kinase-activated protein kinase 3 (Homo sapiens), sequence (Q16644 whole entry, looked up): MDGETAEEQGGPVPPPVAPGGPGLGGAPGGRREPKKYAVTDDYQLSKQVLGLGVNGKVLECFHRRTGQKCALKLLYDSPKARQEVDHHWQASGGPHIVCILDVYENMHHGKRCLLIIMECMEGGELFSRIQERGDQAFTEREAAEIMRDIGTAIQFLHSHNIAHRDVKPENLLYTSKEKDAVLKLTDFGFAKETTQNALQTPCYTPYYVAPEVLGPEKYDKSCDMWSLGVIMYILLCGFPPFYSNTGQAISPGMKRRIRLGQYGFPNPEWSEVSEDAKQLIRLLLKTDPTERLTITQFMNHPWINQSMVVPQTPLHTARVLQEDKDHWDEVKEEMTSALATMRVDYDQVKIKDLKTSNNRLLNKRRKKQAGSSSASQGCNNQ
Glucocorticoid receptor (Homo sapiens), sequence (P04150 whole entry): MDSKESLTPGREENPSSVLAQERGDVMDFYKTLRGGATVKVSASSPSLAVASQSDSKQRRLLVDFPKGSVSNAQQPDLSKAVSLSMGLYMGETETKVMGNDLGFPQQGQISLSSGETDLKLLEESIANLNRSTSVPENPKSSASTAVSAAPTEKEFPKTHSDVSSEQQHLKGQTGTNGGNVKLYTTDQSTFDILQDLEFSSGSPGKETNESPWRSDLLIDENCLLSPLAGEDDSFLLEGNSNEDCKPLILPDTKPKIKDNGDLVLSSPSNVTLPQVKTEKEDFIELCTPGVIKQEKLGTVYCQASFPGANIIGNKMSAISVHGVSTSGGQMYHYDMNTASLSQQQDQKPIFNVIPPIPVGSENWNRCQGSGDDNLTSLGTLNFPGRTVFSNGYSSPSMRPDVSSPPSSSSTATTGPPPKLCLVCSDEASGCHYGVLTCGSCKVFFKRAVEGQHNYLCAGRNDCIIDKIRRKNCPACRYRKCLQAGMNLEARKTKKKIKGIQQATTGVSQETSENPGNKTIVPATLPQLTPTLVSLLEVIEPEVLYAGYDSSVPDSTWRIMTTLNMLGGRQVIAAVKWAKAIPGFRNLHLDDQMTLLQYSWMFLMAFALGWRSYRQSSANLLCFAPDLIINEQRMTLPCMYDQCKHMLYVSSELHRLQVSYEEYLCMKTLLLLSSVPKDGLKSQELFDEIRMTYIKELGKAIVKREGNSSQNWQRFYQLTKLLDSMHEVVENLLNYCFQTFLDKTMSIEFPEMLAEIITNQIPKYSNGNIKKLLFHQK
Tribbles homolog 2 (Homo sapiens), sequence (Q92519 whole entry): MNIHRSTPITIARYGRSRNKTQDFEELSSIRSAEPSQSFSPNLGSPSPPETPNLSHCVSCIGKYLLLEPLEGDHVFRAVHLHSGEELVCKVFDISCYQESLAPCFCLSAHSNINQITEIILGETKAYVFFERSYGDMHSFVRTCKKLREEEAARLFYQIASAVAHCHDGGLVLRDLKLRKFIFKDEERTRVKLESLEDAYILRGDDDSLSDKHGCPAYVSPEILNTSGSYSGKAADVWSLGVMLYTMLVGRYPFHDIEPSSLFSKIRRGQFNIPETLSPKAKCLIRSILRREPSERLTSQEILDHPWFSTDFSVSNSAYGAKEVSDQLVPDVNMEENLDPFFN
Serine/threonine-protein kinase DCLK3 (Homo sapiens), sequence (Q9C098 whole entry): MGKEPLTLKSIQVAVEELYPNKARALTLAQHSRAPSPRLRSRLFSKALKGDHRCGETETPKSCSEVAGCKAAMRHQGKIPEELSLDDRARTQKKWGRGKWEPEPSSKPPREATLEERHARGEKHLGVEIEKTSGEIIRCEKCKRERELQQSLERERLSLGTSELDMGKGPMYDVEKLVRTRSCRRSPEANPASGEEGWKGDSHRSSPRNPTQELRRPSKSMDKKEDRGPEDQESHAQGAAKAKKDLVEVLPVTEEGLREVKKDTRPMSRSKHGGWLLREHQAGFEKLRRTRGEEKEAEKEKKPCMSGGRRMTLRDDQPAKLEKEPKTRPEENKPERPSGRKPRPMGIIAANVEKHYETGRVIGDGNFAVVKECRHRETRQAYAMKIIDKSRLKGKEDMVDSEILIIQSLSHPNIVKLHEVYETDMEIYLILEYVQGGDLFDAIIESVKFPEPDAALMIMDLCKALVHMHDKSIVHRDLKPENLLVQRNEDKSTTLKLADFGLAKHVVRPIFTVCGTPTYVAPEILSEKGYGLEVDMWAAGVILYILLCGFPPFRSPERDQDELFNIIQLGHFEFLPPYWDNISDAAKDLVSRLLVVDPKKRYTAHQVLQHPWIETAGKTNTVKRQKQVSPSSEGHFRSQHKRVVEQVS
Dual specificity tyrosine-phosphorylation-regulated kinase 1B (Homo sapiens), sequence (Q9Y463 whole entry, looked up): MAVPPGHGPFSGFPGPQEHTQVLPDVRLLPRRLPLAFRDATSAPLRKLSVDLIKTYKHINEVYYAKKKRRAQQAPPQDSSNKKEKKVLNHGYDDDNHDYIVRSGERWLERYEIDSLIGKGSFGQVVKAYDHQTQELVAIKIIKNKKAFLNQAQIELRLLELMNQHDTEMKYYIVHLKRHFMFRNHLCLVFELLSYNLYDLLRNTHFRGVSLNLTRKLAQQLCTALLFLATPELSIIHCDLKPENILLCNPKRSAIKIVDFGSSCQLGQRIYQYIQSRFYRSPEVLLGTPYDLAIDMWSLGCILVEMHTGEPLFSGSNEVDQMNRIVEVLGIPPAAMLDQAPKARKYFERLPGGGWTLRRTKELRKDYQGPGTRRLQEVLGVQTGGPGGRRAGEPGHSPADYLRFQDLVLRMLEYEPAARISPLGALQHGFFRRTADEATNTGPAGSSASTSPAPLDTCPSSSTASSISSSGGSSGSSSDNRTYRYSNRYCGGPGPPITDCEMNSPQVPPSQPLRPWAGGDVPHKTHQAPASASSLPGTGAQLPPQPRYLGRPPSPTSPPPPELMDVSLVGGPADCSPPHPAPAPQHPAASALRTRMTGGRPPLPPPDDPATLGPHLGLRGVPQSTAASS
D(2) dopamine receptor (Homo sapiens), sequence (P14416 whole entry): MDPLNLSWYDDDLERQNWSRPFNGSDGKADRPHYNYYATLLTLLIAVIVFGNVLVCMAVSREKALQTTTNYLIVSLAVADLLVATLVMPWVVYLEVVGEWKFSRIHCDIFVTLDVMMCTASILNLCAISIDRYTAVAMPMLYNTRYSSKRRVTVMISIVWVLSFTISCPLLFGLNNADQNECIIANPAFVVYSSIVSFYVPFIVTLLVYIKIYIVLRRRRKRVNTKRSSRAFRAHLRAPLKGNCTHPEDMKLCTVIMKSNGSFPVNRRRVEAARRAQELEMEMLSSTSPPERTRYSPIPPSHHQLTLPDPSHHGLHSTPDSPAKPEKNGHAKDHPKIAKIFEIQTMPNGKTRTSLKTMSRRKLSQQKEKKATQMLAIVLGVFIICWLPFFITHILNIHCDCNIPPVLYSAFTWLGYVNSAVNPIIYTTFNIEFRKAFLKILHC
Dual specificity protein kinase CLK1 (Homo sapiens), sequence (P49759 whole entry, looked up): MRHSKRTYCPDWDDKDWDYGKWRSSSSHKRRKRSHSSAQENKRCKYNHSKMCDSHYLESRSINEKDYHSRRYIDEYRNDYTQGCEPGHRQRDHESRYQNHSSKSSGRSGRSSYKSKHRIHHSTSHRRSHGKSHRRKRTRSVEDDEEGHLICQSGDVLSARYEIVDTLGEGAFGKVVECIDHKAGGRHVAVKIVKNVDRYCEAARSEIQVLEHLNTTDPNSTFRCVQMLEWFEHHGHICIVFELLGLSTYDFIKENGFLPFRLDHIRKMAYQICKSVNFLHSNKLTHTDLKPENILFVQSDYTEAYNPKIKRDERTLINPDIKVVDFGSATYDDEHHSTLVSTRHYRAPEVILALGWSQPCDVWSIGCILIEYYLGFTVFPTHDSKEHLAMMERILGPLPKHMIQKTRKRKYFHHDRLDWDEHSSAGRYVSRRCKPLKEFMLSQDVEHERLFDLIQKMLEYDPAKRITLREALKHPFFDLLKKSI

Compound: O=c1n(Cc2cncn2-c2cccc(Cl)c2)nc(-c2ccc(Cl)cc2)n1C[C@H](O)C(F)(F)F
- inhibition [1]: 2.63%
- inhibition [2]: 3.48%
- inhibition [3]: 8.43%
- inhibition [4]: -2.47%
- inhibition [5]: -5.05%
- inhibition [6]: -5.87%
- inhibition [7]: 0.51%
- inhibition [8]: -6.92%
- inhibition [9]: -3.28%
- inhibition [10]: -2.42%
- inhibition [11]: -3%
- inhibition [12]: -1.49%
- inhibition [13]: -2.28%
- inhibition [14]: -3.79%
- inhibition [15]: 1%
- inhibition [16]: 7.05%
- inhibition [17]: 8.26%
- inhibition [18]: 2.09%
- inhibition [19]: 32%
- inhibition [20]: 0.32%
- inhibition [21]: -1.75%
- inhibition [22]: -1.74%
- inhibition [23]: 13.2%
- inhibition [24]: 2.02%
- inhibition [25]: -6.07%
- inhibition [26]: 1.74%
- inhibition [27]: 15.4%
- inhibition [28]: -1%
- inhibition [29]: -4.02%

Compound: C[C@H](O)c1nc(Cn2nc(-c3ccc(Cl)cc3)n(C[C@H](O)C(F)(F)F)c2=O)nn1-c1cccc(Cl)c1 [PECAVAPTAN]
- inhibition [1]: 0.06%
- inhibition [2]: -2.41%
- inhibition [3]: -1.31%
- inhibition [4]: -5.25%
- inhibition [5]: 6.64%
- inhibition [6]: 0.32%
- inhibition [7]: -1.47%
- inhibition [8]: -7.82%
- inhibition [9]: -2.94%
- inhibition [10]: -1.96%
- inhibition [11]: 14%
- inhibition [12]: -1.46%
- inhibition [13]: -1.02%
- inhibition [14]: -7.04%
- inhibition [15]: -5%
- inhibition [16]: 7.77%
- inhibition [17]: 8.85%
- inhibition [18]: -0.21%
- inhibition [19]: 1%
- inhibition [20]: -3.01%
- inhibition [21]: 2.34%
- inhibition [22]: -2.51%
- inhibition [23]: 0.72%
- inhibition [24]: -0.68%
- inhibition [25]: -4.82%
- inhibition [26]: 1.69%
- inhibition [27]: 15.8%
- inhibition [28]: -2%
- inhibition [29]: 3.65%
